In patent publication US6166049A, “Use of an antagonist of PPARα and PPARγ for the treatment of syndrome X” (SmithKline Beecham P.L.C., priority 1996, dated 2000):

How the values were obtained:
[1] = molecular target: T1, human PPARα (Homo sapiens, UniProt Q07869); experiment: hPPARα agonist activity, transactivation reporter gene assay; assay type: cell-based; conditions: read-out: EC50 for activation of human PPARα
T1 construct: expressed in transfected cells
T1 sequence (Q07869 239-466 limits assumed): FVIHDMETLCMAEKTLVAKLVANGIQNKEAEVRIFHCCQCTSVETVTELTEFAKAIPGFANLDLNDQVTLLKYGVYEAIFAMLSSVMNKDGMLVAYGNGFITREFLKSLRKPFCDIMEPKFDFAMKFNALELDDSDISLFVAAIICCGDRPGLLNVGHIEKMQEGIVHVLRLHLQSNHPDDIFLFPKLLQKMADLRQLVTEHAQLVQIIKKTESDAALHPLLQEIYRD
Excerpt: (§1) PPARα and γ agonist activity may be assessed by use of the methodology, or similar methodology, to that disclosed by Lehmann et al: Journal of Biological Chem., 270, 12953-12956 (1995).
In one aspect PPARα agonist compounds are those which stimulate a PPAR alpha chimeric receptor consisting of the PPAR alpha ligand binding site linked to a suitable reporter gene construct such as luciferase or chloramphenicol acetyltransferase (CAT). This activity can be identified by using the methods outlined by Lehmann et al., ibid.
(a) PPARα agonist activity by detecting stimulation of a PPAR alpha chimeric receptor consisting of the PPAR alpha ligand binding site linked to a suitable reporter gene construct; and
A suitable PPARα chimeric receptor comprises the amino acids of the ligand binding domain, for example amino acids 281-468, of the human PPARα, fused to amino acids 1-147 (DNA binding domain) of the gal 4 yeast transcription factor.
(§2) A suitable reporter gene construct is a luciferase or chloramphenicol acetyltransferase (CAT).
A suitable luciferase reporter gene construct contains gal 4 DNA binding elements in HEK-293 cells.
1) Determination of hPPARα and hPPAR-γ Agonist Activity
(§3) Compound agonist effects at human PPARα and PPARγ were assessed using a transactivation reporter gene assay, based on that described by Lehman et al. (1995) J Biol Chem 270, 12953-12956.

[2] = molecular target: T2, human PPARγ (Homo sapiens, UniProt P37231); experiment: hPPARγ agonist activity, transactivation reporter gene assay; assay type: cell-based; conditions: read-out: EC50 for activation of human PPARγ
T2 construct: expressed in transfected cells
T2 sequence (P37231 173-476 isoform P37231-2): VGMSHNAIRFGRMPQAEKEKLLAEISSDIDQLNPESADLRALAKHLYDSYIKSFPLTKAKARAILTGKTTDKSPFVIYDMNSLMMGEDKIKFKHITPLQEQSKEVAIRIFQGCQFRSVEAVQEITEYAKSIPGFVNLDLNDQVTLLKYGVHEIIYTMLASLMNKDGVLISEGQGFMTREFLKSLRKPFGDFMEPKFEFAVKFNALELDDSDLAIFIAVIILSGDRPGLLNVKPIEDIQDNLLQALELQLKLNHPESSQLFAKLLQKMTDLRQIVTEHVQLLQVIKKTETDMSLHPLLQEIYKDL
Excerpt: as §1
In one aspect PPARγ agonist compounds are those which stimulate a PPARγ chimeric receptor containing the PPAR gamma ligand binding site linked to a suitable reporter gene construct such as luciferase or chloramphenicol acetyltransferase (CAT). This activity can be identified by using the methods of Lehmann et al. J Biol. Chem., ibid.
(b) PPARγ agonist activity by detecting stimulation of a PPARγ chimeric receptor containing the PPAR gamma ligand binding site linked to a suitable reporter gene construct such as luciferase or chloramphenicol acetyltransferase (CAT).
A suitable PPARγ chimeric receptor comprises the amino acids of the ligand binding domain, for example amino acids 173-476, of the human PPARγ receptor fused to amino acids 1-147 (DNA binding domain) of the gal 4 yeast transcription factor.
as §2
A suitable luciferase reporter gene construct contains gal 4 DNA binding elements in HEK-293 cells. […]
as §3

[3] = system: C57 Bl/KsJ db/db mouse; experiment: Blood glucose in the C57 Bl/KsJ db/db mouse; assay type: in vivo; conditions: mean ± SD, n = 9-10; for Blood glucose, pre-dose: treated group before dosing (baseline)
Procedure: (§4) 2) Determination of Compound Efficacy on Blood Glucose and Plasma Lipids in the C57 Bl/KsJ db/db Mouse
(§5) This is paralleled by glycosuria and polyuria with a compensatory increase in water intake. Circulating serum triglycerides and free fatty acids are also elevated.
(§6) Compounds are administered by dietary admixture (powdered RM3 diet) for 14 days and blood glucose measured in samples taken from the tail vein of conscious non-fasted mice at appropriate intervals during the treatment period. After the 14 day treatment period, mice are killed by cervical dislocation and blood obtained from the severed jugular veins. Triglyceride and non-esterified fatty acids are measured in samples of serum obtained by centrifugation.

[4] = system: C57 Bl/KsJ db/db mouse; experiment: Serum lipids in the genetically diabetic C57 Bl/KsJ db/db mouse; assay type: in vivo; conditions: 0.3 umol/kg body wt, dietary admixture, after 14 days, *** p < 0.001, mean ± SD
Procedure: as §4, §5, §6

EC50 [1]: 2500 nM
EC50 [2]: 70 nM
SMILES: CN(CCOc1ccc(C[C@H](OCC(F)(F)F)C(=O)O)cc1)c1nc2ccccc2o1 [(S)-3-[4-[2-[N-(2-benzoxazolyl)-N-methylamino]ethoxy]phenyl]-2-(2,2,2-trifluoroethoxy)propanoic acid]
Blood glucose, post dose (13 days) ([3]; EXPT I, dietary admixture, 13 days, control 34.0 ± 7.9, *** p < 0.001): 11.0 ± 3.6 mmol/L
Blood glucose, pre-dose ([3]; EXPT I, control 15.5 ± 3.7): 15.6 ± 4.0 mmol/L
Blood glucose, Day 1 ([3]; EXPT II, dietary admixture, Day 1, control 17.2 ± 3.7): 14.1 ± 3.7 mmo/l
Blood glucose, Day 2 ([3]; EXPT II, dietary admixture, Day 2, control 19.9 ± 2.7, ** p < 0.01): 15.0 ± 3.4 mmo/l
Blood glucose, Day 3 ([3]; EXPT II, dietary admixture, Day 3, control 20.2 ± 3.9, *** p < 0.001): 12.2 ± 5.1 mmo/l
Blood glucose, Day 5 ([3]; EXPT II, dietary admixture, Day 5, control 21.2 ± 1.9, *** p < 0.001): 11.3 ± 3.6 mmo/l
Blood glucose, Day 7 ([3]; EXPT II, dietary admixture, Day 7, control 23.4 ± 2.0, *** p < 0.001): 11.7 ± 3.7 mmo/l
Blood glucose, pre-dose ([3]; EXPT II, control 16.5 ± 2.9): 16.2 ± 4.3 mmo/l
Serum non-esterified fatty acids ([4]; control 2.58 ± 0.45): 1.28 ± 0.15 mmol/L
Serum triglycerides ([4]; control 3.78 ± 1.34): 2.58 ± 0.45 mmol/L
